Values belong to the compound of their own block, whether it stands above or below them.
Tests used:
Assay type in all cases: physicochemical
[1] = appearance of the hydrated drug formulation; settings: formulation with docetaxel
Method: 3.8 mg of compound 1 was dispensed into a 25 mL round bottom flask and dissolved in methanol (2 mL). 240 μL of a stock solution of docetaxel in methanol (5 mg/mL) was added.
(§1) The solution was evaporated to dryness in a rotary evaporator. Final drying was performed in a desiccator to remove residual solvent. Hydration of the dried film was performed by adding water for injection (1.2 mL). […] Drug loading capacity is defined as the ratio of amount API:(API+excipient).
(§2) 11 mg of example 1 was dispensed into a 25 mL round bottom flask and dissolved in methanol (2 mL). 740 μL of a stock solution of docetaxel in methanol (4.96 mg/mL) was added. The solution was evaporated to dryness in a rotary evaporator. Final drying was performed in a desiccator to remove residual solvent.
as §2, with “4.5” for “11”, “compound” for “example”, “1500” for “740”, “cabazitaxel” for “docetaxel”, “(1.00” for “(4.96”
as §2, with “4.5” for “11”, “compound” for “example”, “1500” for “740”, “cyclosporin” for “docetaxel”, “(1.00” for “(4.96”, “solvent. […]” for “solvent.”
4.5 mg of compound 4 was dispensed into a round bottom flask and dissolved in methanol (3 mL). […] of a stock solution of docetaxel in methanol (4.96 mg/mL) was added. The solution was evaporated to dryness in a rotary evaporator. Final drying was performed in a desiccator (40 min) to remove residual solvent. Rehydration of the dried film was performed by adding 0.9% sodium chloride solution (1.5 mL).

[2] = drug loading capacity (ratio of amount API:(API+excipient)); settings: docetaxel 1.25 mg + compound 4.0 mg
Method: as §1
(§3) 20 mg of example 1 was dispensed into a 25 mL round bottom flask and dissolved in methanol (3 mL). 800 μL of a stock solution of docetaxel in methanol (5 mg/mL) was added. The solution was evaporated to dryness in a rotary evaporator. Final drying was performed in a desiccator to remove residual solvent. Hydration of the dried film was performed by adding water for injection (1.0 mL) to a concentration of 4 mg/mL of docetaxel. The 4 mg/mL concentration was further diluted with 0.9% sodium chloride according to the table below.
as §2
as §2, with “4.5” for “11”, “compound” for “example”, “1500” for “740”, “cabazitaxel” for “docetaxel”, “(1.00” for “(4.96”
as §2, with “4.5” for “11”, “compound” for “example”, “1500” for “740”, “cyclosporin” for “docetaxel”, “(1.00” for “(4.96”
4.0 mg of compound 2 was dispensed into a 25 mL round bottom flask and dissolved in methanol (3 mL). 250 μL of a stock solution of docetaxel in methanol (5 mg/mL) was added. The solution was evaporated to dryness in a rotary evaporator. Final drying was performed in a desiccator to remove residual solvent. Hydration of the dried film was performed by adding water for injection (1.25 mL). […]
as §2, with “4.5” for “11”, “compound 3” for “example 1”, “(3” for “(2”, “305” for “740”
as §2, with “4.5” for “11”, “compound 3” for “example 1”, “(3” for “(2”, “[…]” for “740”

[3] = micellar particle size and polydispersity index (ZetaSizer, dynamic light scattering) of drug formulations at different dilutions; settings: micelles with docetaxel
Method: The particle size of the micelles in the composition is typically in the range of about 5 to about 150 nm. The particle size may be determined e.g. using Dynamic Light Scattering (DLS) in 0.9% NaCl at 1 mg/mL drug concentration, preferably using a red laser with a wavelength of 633 nm.
Micellar size was measured using a ZetaSizer from Malvern Panalytical. […]
as §3, with “below. […]” for “below.”
(§4) A serial dilution was performed for the system docetaxel:compound 1. A stock solution of docetaxel in methanol was mixed with a stock solution of the micelle forming agent (compound 1) in a round bottom flask at a weight ratio of 1:5. The mixture was evaporated to dryness in a rotary evaporator. Final drying was performed in a desiccator to remove residual solvent. Hydration of the dried film was performed by adding water for injection (1.0 mL) to a concentration of 1 mg/mL of docetaxel. The resulting solution was filtered through a 0.22 μm sterile filter and further diluted with 0.9% sodium chloride solution.
as §2, with “4.5” for “11”, “compound” for “example”, “1500” for “740”, “cabazitaxel” for “docetaxel”, “(1.00” for “(4.96”, “solvent. […]” for “solvent.”

[4] = particle size and polydispersity index of drug micelles over time (ZetaSizer); settings: docetaxel:compound 1:5, docetaxel 0.5 mg/mL
Method: Micellar size was measured using a ZetaSizer from Malvern Panalytical.
as §4, with “A” for “A serial dilution was performed for the system docetaxel:compound 1. A”, “compound 1” for “the micelle forming agent (compound 1)”, “flask.” for “flask at a weight ratio of 1:5.”, “solution to 0.5 mg/mL of docetaxel. […]” for “solution.”
(§5) A stock solution of cyclosporin in methanol was mixed with a stock solution of compound 1 in a round bottom flask. The mixture was evaporated to dryness in a rotary evaporator. Final drying was performed in a desiccator to remove residual solvent. Hydration of the dried film was performed by adding water for injection (1.0 mL) to a concentration of 1 mg/mL of cyclosporin. The resulting solution was filtered through a 0.22 μm sterile filter and further diluted with 0.9% sodium chloride solution to 0.5 mg/mL of cyclosporin. The final weight ratio of cyclosporin to micelle forming agent was 1:3.
(§6) A stock solution of docetaxel in methanol was mixed with a stock solution of compound 3 in a round bottom flask. The mixture was evaporated to dryness in a rotary evaporator. Final drying was performed in a desiccator to remove residual solvent. Hydration of the dried film was performed by adding water for injection (1.0 mL) to a concentration of 1 mg/mL of docetaxel. The resulting solution was filtered through a 0.22 μm sterile filter and further diluted with 0.9% sodium chloride solution to 0.5 mg/mL of Docetaxel. The final weight ratio of docetaxel to micelle forming agent was 1:3.
as §5, with “compound 3” for “compound 1”
as §6, with “4” for “3”, “docetaxel. […]” for “Docetaxel. The final weight ratio of docetaxel to micelle forming agent was 1:3.”
as §6, with “compound 5” for “compound 3”, “of docetaxel.” for “of Docetaxel.”
A stock solution of cabazitaxel in methanol was mixed with a stock solution of compound 5 in a round bottom flask. The mixture was evaporated to dryness in a rotary evaporator. Final drying was performed in a desiccator to remove residual solvent. Hydration of the dried film was performed by adding water for injection (1.0 mL) to a concentration of 1 mg/mL of cabazitaxel. […]

[5] = 1.25 mg docetaxel + 4.0 mg compound, water 1.25 mL, mixed 1:1 v/v with 0.9% NaCl
[6] = ratio 3:1, 0.9% NaCl, docetaxel conc. 0.25 mg/mL
[7] = ratio 3:1, 0.9% NaCl, docetaxel conc. 0.5 mg/mL
[8] = ratio 3:1, 0.9% NaCl, docetaxel conc. 1 mg/mL

appearance of formulation [1]: yellow transparent solution
Drug loading capacity [2]: 24%
Particle size [3, 5]: 17.9 nm
Polydispersity index [3, 5]: 0.72
Structure (SMILES): COc1cc(C)c(/C=C/C(C)=C/C=C/C(C)=C/C(=O)N(CCCS(=O)(=O)[O-])C2CCCCC2)c(C)c1C.[Na+] [Compound 2]

appearance of formulation [1]: yellow transparent solution
Particle size [3, 6]: 8.7 nm
Polydispersity index [3, 6]: 0.31
Particle size [3, 7]: 8.9 nm
Polydispersity index [3, 7]: 0.25
Particle size [3, 8]: 8.9 nm
Polydispersity index [3, 8]: 0.32
Particle size ([4]; time 0 h): 34.56 nm
Polydispersity index ([4]; time 0 h): 0.26
Particle size ([4]; time 1 h): 54.37 nm
Polydispersity index ([4]; time 1 h): 0.14
Particle size ([4]; time 2 h): 56.46 nm
Polydispersity index ([4]; time 2 h): 0.12
Particle size ([4]; time 4 h): 58.90 nm
Polydispersity index ([4]; time 4 h): 0.11
Particle size ([4]; time 6 h): 59.79 nm
Polydispersity index ([4]; time 6 h): 0.12
Particle size ([4]; time 24 h): 78.72 nm
Polydispersity index ([4]; time 24 h): 0.08
Structure (SMILES): COc1cc(C)c(/C=C/C(C)=C/C=C/C(C)=C/C(=O)N(CC(O)CS(=O)(=O)[O-])C2CCCCC2)c(C)c1C.[Na+] (stereo not drawn) [Compound 4]
change of particle size and polydispersity index over time ([4]; 0-24 h): Increase in the particle size and variations of the polydispersity index over time were noted

From patent publication US20260337156A1, “SOLUBILIZING COMPOUNDS” (Vivesto AB, priority 2022, published 2026)
